Measured values from patent US20210196654A1, “METHOD OF TREATING CONDITIONS” (Clexio Biosciences Ltd., priority 2019, published 2021).
Where two headings read alike, the source gives them in different places.

What was measured:
[1] = tested on: healthy male and female subjects; assay: Single dose crossover study in healthy volunteers, adverse events; format: in vivo, human
Source text: A total of 128 TEAEs (treatment-emergent adverse event) were reported by 15 of 16 (94%) subjects of which 79 TEAEs reported by 14 of 16 (88%) subjects were to be related to the study drug. Overall, a total of 14 of 128 TEAEs reported by 4 (25%) subjects were of moderate severity and 114 of 128 TEAEs reported by 15 (94%) subjects were of mild severity. […] The most frequently occurring adverse events (reported more than twice) were headache, dizziness, hypokinesia, feeling abnormal, fatigue, euphoric mood inappropriate affect, nausea and hyperhidrosis. Table 4 presents the frequency of the most frequently reported related TEAEs as a percentage of the subjects that experienced an adverse effect per treatment.

NMDA receptor = details: Ebert et al (1997); cited from earlier work
Sprague Dawley rats = assay: Repeated dose 28 day toxicity study; format: in vivo, rat; details: 28 days oral gavage
Method: The objective of the study was to assess the potential toxicity, neurobehavioral effects, and toxicokinetics (TK) of esketamine when administered orally, via gavage, to Sprague Dawley rats for 28 days and to evaluate recovery during a 14-day drug-free period. Fifty male and 50 female rats were randomized into 4 groups (15/sex/Groups 1 and 4; 10/sex/Groups 2 and 3). Esketamine was administered via oral gavage once daily for 28 consecutive days to males at 0 (vehicle control), 6, 10 or 30 mg/kg/day and females at 0 (vehicle control), 2, 10 or 20 mg/kg/day in a dose volume of 10 mL/kg. Animals were observed until euthanized and necropsied on Day 29 (10/sex/group) or 43 (5/sex from Groups 1 and 4). Toxicity was evaluated based on mortality, clinical observations, body weights, food consumption, ophthalmology, motor activity, functional observational battery, clinical pathology (clinical chemistry, hematology, coagulation and urinalysis), organ weights, anatomic (macroscopic or microscopic) pathology. Toxicokinetic animals (3/sex/Group 1; 6/sex/Groups 2, 3, and 4) were similarly dosed and bled on Day 1 and during Week 4 for toxicokinetic analysis.

[2] = tested on: human peripheral blood lymphocytes (HPBL); details: for structural or numerical (polyploid or endoreduplicated cells) aberrations: non-activated 4 and 20-hour exposure, 60, 120, 238 μg/mL
Method: The clastogenic potential of esketamine was evaluated in the in vitro mammalian chromosome aberration test using human peripheral blood lymphocytes (HPBL) in both the absence and presence of an induced metabolic activation system (the 9000 g supernatant [S9] microsomal fraction of liver homogenate from rats exposed to Aroclor-1254).
The study was conducted in 2 phases, with a preliminary toxicity test used to determine the appropriate concentrations for the definitive chromosomal aberration assay. Water was used as a negative (vehicle) control. Toxicity (defined as >45% reduction in MI relative to the vehicle control) was evaluated at 9 concentrations, ranging from 0.0238 to 238 μg/ml, after exposure of HPBL to esketamine for 20 hours in the absence of S9 activation, or for 4 hours, either in the presence or absence of S9 activation, followed by a 16-hour recovery period.
The definitive chromosome aberration assay evaluated HPBL cells after exposure to esketamine for 20 hours in the absence of S9 activation, or for 4 hours, either in the presence of absence of S9 activation, followed by a 16-hour recovery. Positive controls for chromosomal aberrations in non-activated and S9-activated evaluations, respectively, consisted of mitomycin C (MMC, 0.6 and 0.3 μg/mL for the 4- and 20-hour exposures, respectively) and cyclophosphamide (CP, 2.5, 5, and 7.5 μg/mL). […] Initially, the doses selected for evaluation of chromosomal aberrations were 60, 120, and 238 μg/mL for the non-activated 4- and 20-hour treatment conditions; and 30, 60, and 200 μg/mL for the S9-activated 4-hour treatment condition.

[3] = Oye et al (1992); cited from earlier work

## CN[C@]1(c2ccccc2Cl)CCCCC1=O [esketamine, (2S)-2-(2-Chlorophenyl)-2-(methylamino) cyclohexanone]
[1]; 0.3 mg/kg iv
  Dizziness, related TEAE, percentage of subjects: 6%
  Euphoric mood, related TEAE, percentage of subjects: 19%
  Fatigue, related TEAE, percentage of subjects: 6%
  Feeling abnormal, related TEAE, percentage of subjects: 13%
  Headache, related TEAE, percentage of subjects: 19%
  Hypokinesia, related TEAE, percentage of subjects: 6%
  Inappropriate affect, related TEAE, percentage of subjects: 6%
  Nausea, related TEAE, percentage of subjects: 6%
[1]; 20 mg oral solution
  Feeling abnormal, related TEAE, percentage of subjects: 19%
  Headache, related TEAE, percentage of subjects: 19%
  Inappropriate affect, related TEAE, percentage of subjects: 6%
[1]; 20 mg oral tablet
  Dizziness, related TEAE, percentage of subjects: 13%
  Fatigue, related TEAE, percentage of subjects: 7%
  Feeling abnormal, related TEAE, percentage of subjects: 7%
  Hyperhidrosis, related TEAE, percentage of subjects: 7%
[1]; 100 mg oral tablet
  Dizziness, related TEAE, percentage of subjects: 13%
  Euphoric mood, related TEAE, percentage of subjects: 13%
  Feeling abnormal, related TEAE, percentage of subjects: 20%
  Headache, related TEAE, percentage of subjects: 13%
  Hyperhidrosis, related TEAE, percentage of subjects: 7%
  Hypokinesia, related TEAE, percentage of subjects: 13%
  Inappropriate affect, related TEAE, percentage of subjects: 7%
  Nausea, related TEAE, percentage of subjects: 20%
[1]; 4 subjects
  subjects reporting TEAEs of moderate severity: 25%
[1]; 14 of 16 subjects
  subjects reporting TEAEs related to the study drug: 88%
[1]; 15 of 16 subjects
  subjects reporting TEAEs: 94%
[1]; 15 subjects
  subjects reporting TEAEs of mild severity: 94%
[1]; 15 subjects who completed the study
  tolerability: generally well tolerated
[1]; all treatments
  TEAEs related to the study drug: 79
  severe TEAEs or SAEs: No severe TEAEs or SAEs were reported
[1]; all treatments, 16 subjects
  total TEAEs reported: 128
[1]; of 128 TEAEs
  TEAEs of mild severity: 114
  TEAEs of moderate severity: 14
NMDA receptor
  affinity for the NMDA receptor relative to (R)-ketamine: 5 times
Sprague Dawley rats
  effects on clinical signs, body weights, food consumption, ophthalmology, motor activity, functional observational battery, clinical pathology or anatomic pathology: no esketamine -related effects
Sprague Dawley rats; males 6, 10, 30, females 2, 10, 20 mg/kg/day
  mortality: no mortality
[2]
  Cochran-Armitage test, structural aberrations: positive for a dose response
  Toxicity (>45% reduction in MI relative to vehicle control), preliminary toxicity test: not observed at any dose
  induction of structural chromosomal aberrations: positive
  structural or numerical (polyploid or endoreduplicated cells) aberrations: no significant or dose-dependent increases
[2]; human
  doses at which cytotoxicity was observed: > 200 µg/mL
[2]; non-activated 4- and 20-hour treatment
  cytotoxicity (>45% reduction in mitotic index), chromosomal aberration assay: not observed at any esketamine dose
[2]; listed as Esketamine
  structural or numerical (polyploid or endoreduplicated cells) aberrations: negative
[3]
  potency relative to (R)-ketamine in reducing pain perception and in causing auditory and visual disturbances: 4 times
